Active and inactive are the calls of the source.
Experiments:
[1] = inhibitors of HIV Env-driven cell fusion, dose response, cherry-pick (AID 652057); assay type: functional, cell-based
Cytochrome P450 1A2 = target: T1, Cytochrome P450 1A2 (Homo sapiens, UniProt P05177);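 also: PubChem cytochrome P450 panel assay, CYP1A2 panel member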
T1 sequence (P05177 whole entry): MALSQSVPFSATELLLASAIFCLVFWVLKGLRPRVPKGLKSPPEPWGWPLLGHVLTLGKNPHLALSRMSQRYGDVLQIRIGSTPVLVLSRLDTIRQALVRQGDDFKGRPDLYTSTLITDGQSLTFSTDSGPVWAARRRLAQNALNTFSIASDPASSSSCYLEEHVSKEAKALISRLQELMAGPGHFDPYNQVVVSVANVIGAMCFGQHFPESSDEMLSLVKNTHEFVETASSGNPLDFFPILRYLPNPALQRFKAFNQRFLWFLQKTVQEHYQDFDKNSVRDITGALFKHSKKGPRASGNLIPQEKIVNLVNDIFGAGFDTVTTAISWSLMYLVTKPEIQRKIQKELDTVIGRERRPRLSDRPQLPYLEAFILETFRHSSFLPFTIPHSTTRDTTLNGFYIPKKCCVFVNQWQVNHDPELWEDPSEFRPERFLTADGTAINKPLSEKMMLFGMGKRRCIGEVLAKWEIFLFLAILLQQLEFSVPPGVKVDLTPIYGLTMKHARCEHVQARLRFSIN

[2] = inhibitors of clade B AD8 Env fusion, dose response, cell-based, cherry-pick (AID 652062); assay type: functional;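 also: luciferase signal from cell-cell fusion driven by HIV-1 clade B AD8 Env; potency is for inhibitors of fusion seen as a drop in luminescence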
[3] = target: T2, Microphthalmia-associated transcription factor (Homo sapiens, UniProt O75030); assay: TRPM1 promoter luciferase signal decrease, dose response, MITF inhibitor project, cell-based, SK-MEL-5, cherry-picked, set 3 (AID 493073); assay type: functional
T2 sequence (O75030 whole entry): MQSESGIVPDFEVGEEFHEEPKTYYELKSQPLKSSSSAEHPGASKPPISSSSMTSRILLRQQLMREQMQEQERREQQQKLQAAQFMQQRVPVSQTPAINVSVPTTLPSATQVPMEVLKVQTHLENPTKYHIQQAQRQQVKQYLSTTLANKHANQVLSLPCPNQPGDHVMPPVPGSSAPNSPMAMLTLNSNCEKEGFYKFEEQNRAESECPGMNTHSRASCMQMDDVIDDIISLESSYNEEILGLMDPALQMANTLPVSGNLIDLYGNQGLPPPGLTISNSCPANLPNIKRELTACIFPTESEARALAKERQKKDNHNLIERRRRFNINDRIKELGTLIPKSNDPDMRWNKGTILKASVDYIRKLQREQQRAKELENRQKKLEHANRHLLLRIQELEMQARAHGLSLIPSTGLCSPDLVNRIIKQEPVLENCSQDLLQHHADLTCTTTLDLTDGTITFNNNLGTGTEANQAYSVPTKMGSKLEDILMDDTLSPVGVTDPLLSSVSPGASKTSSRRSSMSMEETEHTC

[4] = Luminescence Cell-Based Dose Confirmation HTS to Identify Activators of 5'UTR Stem-Loop Driven Alpha-Synuclein mRNA Translation in H4 Neuroglioblastoma Cells. [Related pubchem assays: 1829 (Project Summary), 1814 (Primary HTS)]; assay type: functional
[5] = Luminescence Cell-Based Dose Response HTS to Identify Activators of Luciferase Translation or Activity in H4 […] Cells. [Related pubchem assays: 1829 (Project Summary), 1814 (Primary HTS)]; assay type: functional
[6] = NIH-3T3 fibroblast cytotoxicity, dose response, cytotoxicity control, cell-based, fluorescence, Alamar Blue, secondary assay (AID 2327); assay type: functional;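 also: NIH-3T3 mouse fibroblasts cultured with fluconazole at 8 µg/mL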
[7] = C. albicans growth with fluconazole, confirmation, fluorescence, retest (AID 2467); assay type: functional, cell-based
[8] = target: Luciferin 4-monooxygenase (Photinus pyralis, UniProt P08659); assay: firefly luciferase enzyme inhibitors, dose response, biochemical, luminescence (AID 1891)
Luciferin 4-monooxygenase, sequence (P08659 whole entry): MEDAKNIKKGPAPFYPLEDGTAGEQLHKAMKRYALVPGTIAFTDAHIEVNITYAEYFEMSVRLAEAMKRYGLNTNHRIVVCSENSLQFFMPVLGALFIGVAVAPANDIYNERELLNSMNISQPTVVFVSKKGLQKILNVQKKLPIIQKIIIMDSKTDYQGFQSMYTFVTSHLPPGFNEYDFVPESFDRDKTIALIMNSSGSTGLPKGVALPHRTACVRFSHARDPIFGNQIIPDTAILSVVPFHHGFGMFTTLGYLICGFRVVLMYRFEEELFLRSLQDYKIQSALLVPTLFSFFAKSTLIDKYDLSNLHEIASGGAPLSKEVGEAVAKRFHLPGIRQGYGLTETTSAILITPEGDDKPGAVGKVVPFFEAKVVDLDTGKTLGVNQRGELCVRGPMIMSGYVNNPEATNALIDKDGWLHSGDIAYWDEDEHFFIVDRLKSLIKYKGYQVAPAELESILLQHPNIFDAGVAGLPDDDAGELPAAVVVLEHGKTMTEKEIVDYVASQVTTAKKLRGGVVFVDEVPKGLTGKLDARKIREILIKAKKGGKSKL

[9] = Luminescence Cell-Based Dose Confirmation HTS to Identify Inhibitors of Platelet Dense Granule Release. [Related pubchem assays: 1663 (Primary HTS), 1678 (Summary of Project)]; assay type: functional
P388/ADR = assay: cells; assay type: functional; conditions: Mus musculus, P388/ADR
SN12K1 = assay: cells; assay type: functional; conditions: Homo sapiens, SN12K1
P388 = assay: cells; assay type: functional; conditions: Mus musculus, P388
[10] = microbe, parasite or virus in culture; assay type: functional; conditions: Mycobacterium tuberculosis
Cytochrome P450 2D6 = Cytochrome P450 2D6 (Homo sapiens, UniProt P10635);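 also: CYP2D6 member of a cytochrome P450 panel assay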
Cytochrome P450 2D6, sequence (P10635 whole entry): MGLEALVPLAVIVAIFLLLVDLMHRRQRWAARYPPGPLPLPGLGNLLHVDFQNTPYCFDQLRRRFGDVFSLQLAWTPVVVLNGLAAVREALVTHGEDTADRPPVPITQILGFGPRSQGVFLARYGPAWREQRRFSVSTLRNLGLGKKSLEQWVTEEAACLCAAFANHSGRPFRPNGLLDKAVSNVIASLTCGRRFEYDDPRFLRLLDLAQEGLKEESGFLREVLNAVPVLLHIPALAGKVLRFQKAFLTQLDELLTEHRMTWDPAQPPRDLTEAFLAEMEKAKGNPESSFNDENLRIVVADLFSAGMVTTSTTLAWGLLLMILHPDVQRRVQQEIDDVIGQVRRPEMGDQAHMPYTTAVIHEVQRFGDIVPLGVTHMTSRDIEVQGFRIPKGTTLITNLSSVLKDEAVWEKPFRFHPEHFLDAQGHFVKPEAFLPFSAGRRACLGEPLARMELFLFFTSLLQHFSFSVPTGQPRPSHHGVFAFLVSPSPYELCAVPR

[11] = HEp-2 cell cytotoxicity, dose response, cytotoxicity control for RSV inhibitor project, HTS (AID 2410); assay type: functional; conditions: human respiratory syncytial virus

For Clc1ccc2c(c1)C1=C(C(c3ccncc3)O2)C(c2ccc(Br)cc2)n2ncnc2N1 (stereo not given), the AC50 [1] was 11.2 µM (active) and the AC50 (Cytochrome P450 1A2) was 25.1 µM (inconclusive).

For Cc1ccc(-n2nnnc2SCn2nnc3ccccc3c2=O)c(C)c1, the AC50 [2] was 30.1 µM (active).

For Cn1nnnc1Sc1ncnc2scc(-c3cccs3)c12, the AC50 [3] was 7 µM (active).

For CC(=O)C(=NNc1ccc2c(c1)OCO2)C(C)=O, the EC50 [4] was 13.9 µM (active) and the EC50 [5] was 27.8 µM (active).

With Cn1c(=O)c(C(=O)NCCc2ccccc2)c(O)c2ccccc21 the EC50 [6] was > 150 µM (inactive) and the EC50 [7] was > 38 µM (not active).

In the case of O=C(COc1ccc(C(=O)c2ccccc2)cc1)NC1CCCCC1, the EC50 [8] is reported as > 112 µM (not active) and the EC50 [9] is reported as > 112 µM (not active).

With CCn1c(O)c(N=NC(=O)c2ccc(CSc3nncn3C)cc2)c2ccccc21 the EC50 [8] was > 112 µM (not active) and the EC50 [9] was > 112 µM (not active).

With O=C(/C=C/c1ccccc1)NCC1(c2ccccc2)CCOCC1 the EC50 [8] was > 112 µM (not active) and the EC50 [9] was > 112 µM (not active).

For C=CC1(C)CC(=O)C2(O)C(C)(O1)C(OC(C)=O)C(O)C1C(C)(C)CCC(O)C12C (stereo not given), the GI50 (P388/ADR) was 43.9 µM (inactive), the GI50 (SN12K1) was 65.3 µM (inactive) and the GI50 (P388) was 56.4 µM (inactive).

For CCOC(=O)Cn1c(=O)n(Cc2ccco2)c(=O)c2ccc(C(=O)NC3CCCC3)cc21, the EC50 [8] was > 112 µM (not active) and the EC50 [9] was 13.8 µM (active).

For COc1ccc(-n2cc(CNCCc3cscn3)c(-c3ccccc3Cl)n2)cc1, the CC50 [10] was > 40 µM (active).

With COc1ccc(N2CCN(c3ccnc4cc(Cl)ccc34)CC2)cc1 the CC50 [10] was > 40 µM (active).

In the case of Nc1[nH]nc(C2CC2)c1N=Nc1ccc(Cl)cc1, the CC50 [10] is reported as > 40 µM (active).

In the case of CCC(=O)Nc1cccc(-c2nnc(SCC(=O)c3ccccc3)n2C)c1, the EC50 [5] is reported as 47.5 µM (active).

In the case of CCOc1ccc(OCc2ccc(C(=O)NCc3cccnc3)o2)cc1, the EC50 [8] is reported as > 112 µM (not active), the EC50 [9] is reported as > 112 µM (not active) and the AC50 (Cytochrome P450 2D6) is reported as 1.26 µM (inconclusive).

In the case of Cc1ncc2c(n1)-c1cc(F)ccc1SC2, the CC50 [11] is reported as 40.5 µM (active).

In the case of CC(=O)c1ncnn1CC(=O)c1ccc(Cl)cc1Cl, the EC50 [6] is reported as 21.9 µM (inconclusive) and the EC50 [7] is reported as 1.37 µM (active).

With CCOC(=O)c1c(CN2CCN(Cc3ccccc3)CC2)n(C)c2cc(Br)c(OC)cc12 the CC50 [10] was > 40 µM (active).

Reference: ChEMBL document CHEMBL1201862, “PubChem BioAssay data set” (2004)
